The source made the active and inactive calls. A value given as a limit tells only on which side of the number the result lay.

Assay [1] is described as follows: glucagon-like peptide-1 release potency in STC-1, concentration-response, half-maximal inhibitory concentration in the STC-1 line (AID 1117345). Type of assay: functional, cell-based.
The nature of assay [2]: Potency on glucagon-like peptide 1 release, dose-response in NCI-H716 cell line, half maximal inhibitory concentration (AID 1117344). It counts as functional, cell-based.
The next assay addresses Phospholipase D2 (Homo sapiens, UniProt O14939). In words: PLD2 Cellular Concentration Response Study. Type of assay: functional.
The next assay deals with Phospholipase D1 (Homo sapiens, UniProt Q13393). In words: PLD1 Cellular Concentration Response Study. It counts as functional.
Sequence of Phospholipase D1 (Q13393 whole entry): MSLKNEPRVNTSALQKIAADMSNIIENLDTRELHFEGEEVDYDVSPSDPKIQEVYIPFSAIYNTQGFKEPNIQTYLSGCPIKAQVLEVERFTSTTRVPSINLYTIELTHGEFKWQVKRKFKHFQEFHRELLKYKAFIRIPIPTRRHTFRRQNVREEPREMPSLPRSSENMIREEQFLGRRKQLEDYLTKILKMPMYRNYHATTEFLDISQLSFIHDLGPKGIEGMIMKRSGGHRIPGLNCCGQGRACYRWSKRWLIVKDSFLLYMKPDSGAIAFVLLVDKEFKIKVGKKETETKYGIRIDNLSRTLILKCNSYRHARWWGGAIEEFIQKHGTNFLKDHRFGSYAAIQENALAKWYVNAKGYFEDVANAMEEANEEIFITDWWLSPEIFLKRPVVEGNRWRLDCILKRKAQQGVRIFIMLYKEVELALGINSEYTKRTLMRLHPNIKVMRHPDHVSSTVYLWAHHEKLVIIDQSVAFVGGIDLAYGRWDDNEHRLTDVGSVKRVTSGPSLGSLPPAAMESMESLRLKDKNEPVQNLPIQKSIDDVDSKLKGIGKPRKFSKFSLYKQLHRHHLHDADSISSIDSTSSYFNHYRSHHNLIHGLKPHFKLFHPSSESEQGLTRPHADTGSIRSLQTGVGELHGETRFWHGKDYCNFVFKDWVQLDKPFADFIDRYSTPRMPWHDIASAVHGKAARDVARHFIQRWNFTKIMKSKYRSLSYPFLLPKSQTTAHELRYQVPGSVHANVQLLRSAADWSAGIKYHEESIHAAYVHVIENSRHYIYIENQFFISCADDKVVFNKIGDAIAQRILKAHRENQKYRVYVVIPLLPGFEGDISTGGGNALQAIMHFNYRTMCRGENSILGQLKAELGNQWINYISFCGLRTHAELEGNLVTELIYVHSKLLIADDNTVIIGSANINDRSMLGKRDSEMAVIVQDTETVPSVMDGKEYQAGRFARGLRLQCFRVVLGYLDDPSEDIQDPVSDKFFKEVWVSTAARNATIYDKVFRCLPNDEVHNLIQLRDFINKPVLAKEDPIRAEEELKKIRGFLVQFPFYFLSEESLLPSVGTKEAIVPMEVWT
Assay [3] can be described thus: growth inhibition of yeast DHODH-expressing 3D7 parasites – SYBR Green, dry powder samples, dose response (AID 1159570).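 Also: parasite growth measured after 72 hours of compound exposure.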 It counts as functional, cell-based.
Assay [4] is described as follows: P. falciparum Dd2 growth inhibitors, dose response, SYBR Green, cherry-picked samples (AID 1159567). It counts as functional, cell-based.
A short description of assay [5]: antimalarial activity against Dd2 parasites – SYBR Green fluorescence, erythrocytes, dry powder, set 2, dose response (AID 1159574). Type of assay: functional, cell-based.
Assay [6] in a line: Dd2 malaria parasite growth inhibition potency – SYBR Green, dry powder samples, dose response (AID 1159566).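 Also: potency for growth inhibition with lower SYBR green DNA signal.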 Type of assay: functional, cell-based.
Assay [7] in a line: growth inhibition of PfATP4-mutant resistant parasites – NITD609-resistant line, SYBR Green, dry powder, dose response (AID 1159571).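 Also: parasites synchronized at ring stage by sorbitol before testing.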 Type of assay: functional, cell-based.
Assay [8] can be described thus: toxicity to human hepatoma HepG2 cells – cell-based, cherry-picked samples, cytotoxicity control, dose response (AID 1159577). It counts as functional.
Assay [9] has as its target G-protein coupled receptor 183 (Homo sapiens, UniProt P32249). In words: SAR confirmation of small molecule antagonists of the EBI2 receptor via a luminescent beta-arrestin assa. Type of assay: functional.

Sequence of G-protein coupled receptor 183 (P32249 whole entry): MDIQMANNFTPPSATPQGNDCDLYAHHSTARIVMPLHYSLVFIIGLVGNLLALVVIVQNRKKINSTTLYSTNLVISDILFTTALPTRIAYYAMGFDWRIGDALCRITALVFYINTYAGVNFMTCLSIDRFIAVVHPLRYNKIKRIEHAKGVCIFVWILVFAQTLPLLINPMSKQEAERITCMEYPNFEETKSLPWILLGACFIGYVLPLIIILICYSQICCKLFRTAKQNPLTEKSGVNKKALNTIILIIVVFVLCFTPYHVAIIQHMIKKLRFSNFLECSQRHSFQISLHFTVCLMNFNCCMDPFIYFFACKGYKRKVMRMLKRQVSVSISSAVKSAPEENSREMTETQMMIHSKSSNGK
Sequence of Phospholipase D2 (O14939 whole entry): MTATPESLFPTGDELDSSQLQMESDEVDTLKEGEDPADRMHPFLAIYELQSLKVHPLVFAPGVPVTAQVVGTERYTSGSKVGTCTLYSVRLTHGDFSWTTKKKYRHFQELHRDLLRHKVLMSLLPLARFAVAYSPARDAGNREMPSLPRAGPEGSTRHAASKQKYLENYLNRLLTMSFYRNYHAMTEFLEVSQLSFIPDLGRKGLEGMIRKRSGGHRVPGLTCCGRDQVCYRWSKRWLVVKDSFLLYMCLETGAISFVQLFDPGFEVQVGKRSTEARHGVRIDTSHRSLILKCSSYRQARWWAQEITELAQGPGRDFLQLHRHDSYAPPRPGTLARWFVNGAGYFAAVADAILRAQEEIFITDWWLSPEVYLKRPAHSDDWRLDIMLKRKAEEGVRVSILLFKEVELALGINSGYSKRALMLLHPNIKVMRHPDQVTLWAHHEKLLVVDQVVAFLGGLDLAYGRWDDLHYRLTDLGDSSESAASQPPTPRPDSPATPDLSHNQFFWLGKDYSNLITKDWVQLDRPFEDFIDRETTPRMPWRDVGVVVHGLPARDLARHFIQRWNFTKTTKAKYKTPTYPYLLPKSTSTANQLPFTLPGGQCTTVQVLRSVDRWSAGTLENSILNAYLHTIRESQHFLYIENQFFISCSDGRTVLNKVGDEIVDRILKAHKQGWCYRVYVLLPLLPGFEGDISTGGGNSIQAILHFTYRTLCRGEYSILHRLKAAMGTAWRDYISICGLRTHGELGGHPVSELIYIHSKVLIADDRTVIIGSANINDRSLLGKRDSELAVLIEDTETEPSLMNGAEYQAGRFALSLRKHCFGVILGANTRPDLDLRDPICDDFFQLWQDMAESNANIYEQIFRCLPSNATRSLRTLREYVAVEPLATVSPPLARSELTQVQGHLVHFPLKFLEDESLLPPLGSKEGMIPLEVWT

In the case of `CCCCCCCCCCCCCCNCCO`, the results for the IC50 in assay [1] and in assay [2] were > 20 µM (inactive) and 13.6 µM (inactive), respectively.

Regarding `O=C(NCCN1CCC2(CC1)C(=O)NCN2Cc1ccccc1F)c1ccc2ccccc2c1`, the IC50 (in general, the concentration at which inhibition is half-maximal) is 200 nM (active) on Phospholipase D2 and 4.59 µM (active) on Phospholipase D1.

On to `O=C(c1ccccc1F)N1CC(=O)N2[C@H](C1)[C@@H](c1ccc(-c3cccnc3)cc1)[C@@H]2CO`, for which the AC50 – broadly, the concentration at which the activity in the assay is half-maximal – in assay [3] is 36.9 nM (active); in assay [4], < 300 nM (active); in assay [5], 33.1 nM (active); in [6] it was 8.24 nM (active); in [7] it was 14.6 nM (active).

Turning to `N#C[C@@H]1[C@H](c2ccc(C#Cc3ccccc3F)cc2)[C@H](CO)N1C(=O)C1CCCC1`, the concentration at half-maximal activity (AC50) in [4] is 3480 nM (active); in [8] it was > 39 µM (inactive).

With `O=C(/C=C/c1ccc(F)cc1)N1CCN(S(=O)(=O)c2ccc(Cl)cc2)CC1`, the IC50 in assay [9] is 5.48 nM (active).

The values are drawn from ChEMBL document CHEMBL1201862, “PubChem BioAssay data set” (2004).
